Source: patent US20260115187A1, “TRICYCLIC SKELETON COMPOUND AND USE THEREOF IN PREPARATION OF ANTITUMOR DRUG” (ZHONGSHAN HOSPITAL, FUDAN UNIVERSITY, priority 2024, published 2026)
pIC50: −log10 of the molar value.

Experiments:
[1] = system: PLC/PRF/5 KSR2 OE (PLC cells overexpressing KSR2); test: Cell IC50 assay (CCK8 cell viability), PLC/PRF/5 KSR2 OE; type: cell-based; details: Homo sapiens, PLC-PRF-5; hepatoma cells, 72 h incubation, CCK8; read-out: IC50 value of cell viability, PLC/PRF/5 KSR2 OE (PLC cells overexpressing KSR2)
Experimental: (§1) (1) Cell Preparation: Hepatoma cells (PLC/PRF/5, sourced from the Chinese Academy of Sciences; MHCC97H, sourced from this research institute) in good growth condition are prepared. The cells are trypsinized, diluted, and seeded into 96-well cell culture plates. 1,000-3,000 cells are added per well. The plates are then placed in a cell culture incubator at 37° C. with 5% CO2. Drugs are added after the cells have adhered for 24 h.
(§2) (2) Drug Addition: The drugs are subjected to gradient dilution, typically setting 9 concentrations. Control groups containing no drug medium and medium containing only the drug solvent are also set up. The diluted drugs are added to the cell culture plates seeded the previous day. The plates are incubated for 72 h.
(§3) (3) CCK8 Assay for Cell Viability: CCK8 is mixed with culture medium at a 1:10 ratio. 100 μL of this mixture is added to each well of the cell culture plate. After incubating for 2-4 h, the OD values are measured using a microplate reader.
(§4) (4) Data Analysis: Based on the corresponding OD values, the data are compiled, IC50 curves are plotted, and the IC50 values are obtained.
(§5) (5) IC50 Verification: The theoretical IC50 value is identified from the IC50 curve. Drug concentrations at ½ times, 1 time, and 2 times this theoretical value are used for verification.

[2] = system: MHCC97H KSR2 OE (97H cells overexpressing KSR2); test: Cell IC50 assay (CCK8 cell viability), MHCC97H KSR2 OE; type: cell-based; details: Homo sapiens, hepatoma cells, 72 h incubation, CCK8, read-out: IC50 value of cell viability, MHCC97H KSR2 OE (97H cells overexpressing KSR2)
Experimental: as §1, §2, §3, §4, §5

Structure (SMILES)	pIC50 [1]	pIC50 [2]
CN1CCN(C2CCN(CCCNC(=O)c3c4c(nn3C)-c3cc(C#N)c(Cl)cc3OC4)CC2)CC1 [Compound 122]	5.40	5.30
CN1CCN(C2CCN(CCCNC(=O)c3c4c(nn3C)-c3ccc(-c5cn[nH]c5)cc3OC4)CC2)CC1 [Compound 123]	3.94	4.07
CN1CCN(C2CCN(CCCNC(=O)c3c4c(nn3C)-c3ccc(-n5nccn5)cc3OC4)CC2)CC1 [Compound 124]	5.70	5.30
CN1CCN(C2CCN(CCCNC(=O)c3n[nH]c4c3COc3cc(Cl)ccc3-4)CC2)CC1 [Compound 125]	6.00	6.00
CN1CCN(C2CN(CCCNC(=O)c3n[nH]c4c3COc3cc(Cl)ccc3-4)C2)CC1 [Compound 126]	5.05	5.15
CN1CCN(C2CCN(CCCNC(=O)c3nn(C)c4c3COc3cc(-c5cn[nH]c5)ccc3-4)CC2)CC1 [Compound 127]	5.10	5.40
CN1CCN(C2CCN(CCCNC(=O)c3n[nH]c4c3COc3cc(Cl)c(C#N)cc3-4)CC2)CC1 [Compound 128]	5.40	5.22
CCN1CCN(C2CCN(CCCNC(=O)c3n[nH]c4c3COc3cc(Cl)c(C#N)cc3-4)CC2)CC1 [Compound 129]	5.30	5.40
CN1CCN(C2CCN(CCCNC(=O)c3n[nH]c4c3COc3cc(C(F)(F)F)c(C#N)cc3-4)CC2)CC1 [Compound 130]	5.00	5.40
CN1CCN(C2CN(CCCNC(=O)c3n[nH]c4c3COc3cc(C(F)(F)F)c(C#N)cc3-4)C2)CC1 [Compound 131]	4.85	5.05
CCN1CCN(C2CCN(CCCNC(=O)c3n[nH]c4c3COc3cc(C(F)(F)F)c(C#N)cc3-4)CC2)CC1 [Compound 132]	5.40	6.00
CCN1CCN(C2CCN(CCCNC(=O)c3nn(C)c4c3COc3cc(-c5cnn(C)c5)ccc3-4)CC2)CC1 [Compound 133]	5.70	6.00
